From the METLIN SMRT retention time set (Domingo-Almenara et al. 2019)

Experiment: gradient 5% acetonitrile 3 min, to 50% in 2 min, to 85% in 15 min, held 3 min, 100 µL/min
Conditions: column: Zorbax Extend-C18 2.1 x 50 mm; eluents: water / acetonitrile, 0.1% formic acid
Method in brief: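 Mixtures of ~100 pure standards were chromatographed on a Zorbax Extend-C18 column (2.1 × 50 mm, 1.8 μm) at 100 μL/min using water and acetonitrile, each with 0.1% formic acid. Detection used a quadrupole time-of-flight mass spectrometer in positive and negative ionization mode, and data collection spanned 3 months. Retention time was obtained from adduct peaks picked computationally and each checked manually.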

Structure (SMILES) | RP-LC retention time
Cc1cccc(Nc2nc(CC(=O)NCCOc3ccc(F)cc3)cs2)n1 | 651 s
NS(=O)(=O)c1ccc(CCNC(=O)Cc2cc(-c3cc4ccccc4o3)on2)cc1 | 736 s
Cn1c(=O)c2c(ncn2CCCNCC(O)c2cc(O)cc(O)c2)n(C)c1=O (centres undefined) | 952 s
O=c1n(Cc2ccccc2)nc2c(S(=O)(=O)N3CCc4ccccc4C3)cccn12 | 942 s
Cc1cc(C)n(CCC(=O)N2CC[C@@H]3CN(S(C)(=O)=O)[C@@H]3C2)n1 | 594 s
CCCC1c2nccn2CCCN1C(=O)c1ocnc1C (centres undefined) | 558 s
CC(C)(C)c1ccc(S(=O)(=O)N2CCCC(CNC(=O)c3ccccc3)C2)cc1 (centres undefined) | 1080 s
Cc1c(-c2noc(-c3ccc(F)cc3)n2)nnn1-c1ccccc1 | 994 s
Cc1ccc(C(=O)Nc2ccc3c(c2)CCC(=O)N3)s1 | 680 s
CCCCNC(=O)C1CC(=O)N(CCc2c[nH]c3ccc(Cl)cc23)C1 (centres undefined) | 761 s
Cc1nc(-c2cc3cccc(C)c3nc2N2CCN(c3ccc(F)cc3)CC2)no1 | 732 s
O=C(Cc1ccsc1)Nc1ccc(N2CCN(Cc3ccccc3)C2=O)nc1 | 643 s
Cc1ccc(-c2nc(NC(=O)Cc3csc(-c4ccccc4)n3)sc2C)cc1 | 1250 s
O=S(=O)(c1ccc2c(c1)CCCC2)N1CCN(Cc2nnnn2-c2ccccc2)CC1 | 991 s
CCOc1ccc(NC(=O)NCCC2CCN(S(=O)(=O)c3ccccc3)CC2)cc1 | 836 s
O=C(Cn1c(=O)c2cccn2c2ccccc21)Nc1ccccc1F | 824 s
Cn1nc2c(c1NC(=O)Cc1ccc3c(c1)OCO3)CCC2 | 644 s
Cn1cc(-c2ccccc2)c2c1c(=O)n(C)c1nn(Cc3nc(-c4ccccc4)no3)c(=O)n21 | 1040 s
O=c1ccn(-c2ccc(F)c(F)c2)nc1-c1nc(-c2ccc(F)cc2)no1 | 904 s
CN1C(=O)CCc2cc(NS(=O)(=O)c3ccc(F)c(F)c3)ccc21 | 781 s
CC1CS(=O)(=O)N(c2cccc(C(=O)N3CCCc4ccccc43)c2)C1=O (centres undefined) | 781 s

Structure (SMILES) | RP-LC retention time
O=C(CCC(=O)N1CCCC1c1nc2ccccc2s1)N1CCN(c2ccccc2)CC1 (centres undefined) | 812 s
CCn1cc(S(=O)(=O)N2CCC(c3nn(C)c(=O)n3C3CCCC3)CC2)cn1 | 717 s
COCCN1C(=O)[C@H]2CN(Cc3ccc(F)cc3Cl)C[C@H]2C1=O | 693 s
NC(N)=NC(=O)c1nc(Cl)c(N2CCCCCC2)nc1N | 758 s
CN(C)CCn1c2c(c(SCC(=O)Nc3cccc(Cl)c3)nc1=O)CCC2 | 651 s
CC(C)CNc1nnc(-c2nc(C3CC3)no2)c2ccccc12 | 657 s
NS(=O)(=O)c1ccc(NC(=O)CC2Sc3ccc(C(F)(F)F)cc3NC2=O)cc1 (centres undefined) | 722 s
Cc1nc(N2CCN(c3ccccc3F)CC2)nc2c1C(=O)CC(c1ccccc1O)C2 (centres undefined) | 1190 s
O=C(C1CCCC1)N1CCC(CCOc2ccncc2)CC1 | 616 s
CCCc1nc(-c2cc3ccc(C)cc3nc2NC2CCCC2)no1 | 968 s
CC1(C(=O)NC2CCCCC2)CN(S(=O)(=O)c2ccccc2)CC(=O)N1c1cccc(F)c1 (centres undefined) | 940 s
O=C(CCSc1ccccc1)N1CCN(c2ccc3nnc(-c4ccco4)n3n2)CC1 | 703 s
CCOCC(=O)N1CCCN(C2=NS(=O)(=O)C(c3ccc(F)cc3)=C2C)CC1 | 711 s
CCCSCCCNC(=O)c1cc2n(n1)CCCN(Cc1ccccc1)C2=O | 878 s
Cn1nc(C2CCCN(C(=O)c3ccco3)C2)n(C2CCCC2)c1=O (centres undefined) | 701 s
O=C(Nc1cnc(N2CCCCCC2)nc1)c1ccc(F)cc1F | 954 s
CCOC(=O)N1CCN(c2nc(F)c3c(c2F)S(=O)(=O)CCN3CC2CCCO2)CC1 (centres undefined) | 958 s
CCSc1nc2ccc(NS(=O)(=O)Cc3cc(F)cc(F)c3)cc2s1 | 1020 s
O=C(Nc1ccc(F)c(Cl)c1)N1CCc2nc[nH]c2C1 | 614 s
Cc1ccc(C)c(S(=O)(=O)N2CCCCCC2c2nnc(C)o2)c1 (centres undefined) | 908 s
Cc1ccccc1Cn1nc2c(S(=O)(=O)N3CCc4ccccc4C3)cccn2c1=O | 987 s

Further lines, results first:

RP-LC retention time | Structure (SMILES)
780 s | CCOC(=O)c1c(C)[nH]c(C(=O)N2CCCC(C(=O)NCc3ccc(OC)cc3)C2)c1C (centres undefined)
661 s | CC1CCCCN1CCCNC(=O)CN1C(=O)c2ccccc2Sc2ncccc21 (centres undefined)
661 s | COc1cc(-c2nc3ccc(C)cn3c2Nc2ccc(C)cc2)ccc1O
829 s | COc1ccc(N2CCN(C(=O)CN3C(=O)CCc4cc(Br)ccc43)CC2)cc1
809 s | CC(NC(=O)C1CCN(C(=O)c2ncn3c2COC(c2ccc(F)cc2)C3)CC1)c1ccccc1 (centres undefined)
567 s | Cc1cc(NC(=O)CSc2[nH]c(=O)ncc2C)on1
747 s | CN1C(=O)c2cc(C(=O)NCc3ccc(F)cc3)nn2CC1(C)C(=O)NC1CCCC1 (centres undefined)
951 s | CC1=NS(=O)(=O)N(C)C=C1C(=O)OCc1ccccc1Cl
646 s | NC(=O)C1CCN(C(=O)c2cn(-c3cccc(Cl)c3)nn2)CC1
746 s | Cc1ccc(Cl)cc1N1CCN(c2cc(C(=O)O)c3cc(NC(=O)C(C)C)ccc3n2)CC1
814 s | O=C(C1CCN(S(=O)(=O)c2ccc(-c3noc(-c4ccncc4)n3)cc2)CC1)N1CCCC1
714 s | CCOc1cc(N)c(Cl)cc1C(=O)NCC1CN(Cc2ccc(F)cc2)CCO1 (centres undefined)
911 s | COC(=O)c1cc(S(=O)(=O)N2CCCC2C(=O)Nc2cc(F)ccc2F)cn1C (centres undefined)
659 s | O=C(c1ccoc1)N1CCc2c(c(CO)nn2Cc2ccccc2)C1
696 s | COc1ccc(N2CCN(C(=O)C3CCCN(c4cc(=O)n(C)c(=O)n4C)C3)CC2)cc1 (centres undefined)
855 s | COc1cccc(-c2noc(C3CCCN3C(=O)Nc3ccc(OC)c(OC)c3)n2)c1 (centres undefined)
679 s | CCC1CCCCN1Cc1nc(Cn2ccn3nc(-c4ccc(OC)cc4)cc3c2=O)no1 (centres undefined)
614 s | COc1ccccc1NC(=O)c1cc2c(s1)CN(C(C)C)C2
670 s | CCOc1ccc(NC(=O)Cn2c(CC)nc3cc4c(cc32)OCCO4)cc1
722 s | COCCC(=O)NC1CCN(C2=NS(=O)(=O)C(c3cccc(Cl)c3)=C2C)CC1
1170 s | Cc1ccc(NS(=O)(=O)c2cc(-c3cc(C(F)(F)F)on3)sc2C)cc1
905 s | COCc1cc2nn(CC(=O)Nc3cccc(C)c3)c(=O)n2c(-c2ccccc2)n1
800 s | CC(=O)N1CCc2ccc(NC(=O)Cc3ccc(-c4ccccc4)cc3)cc2C1
629 s | COCCc1noc(C2CN(C(=O)c3ccoc3)C2)n1

RP-LC retention time | Structure (SMILES)
746 s | COC(=O)c1cccc(NC(=O)C2CCc3nc(N4CCOCC4)ncc3C2)c1 (centres undefined)
1060 s | Cc1sc(NC(=O)Cn2c(=O)oc3ccccc32)nc1-c1ccc(Cl)cc1
671 s | COc1ccccc1CNC(=O)Cc1nnc(-c2ccccn2)o1
798 s | CC(=O)N1CCCc2ccc(NC(=O)COc3ccc(F)cc3)cc21
782 s | O=C(NCc1ccco1)c1ccc2ccnc(N3CCN(c4ccc(F)cc4)CC3)c2c1
728 s | COc1cc(C2=NN(C(C)=O)C(c3cccnc3)O2)cc(OC)c1OC(C)=O (centres undefined)
1020 s | CC(C)Oc1ccc(NC(=O)C2CCN(S(C)(=O)=O)c3cc(Cl)ccc3O2)cc1 (centres undefined)
763 s | CC(=O)N1CCc2cc(CNS(=O)(=O)c3ccccc3Cl)ccc21
835 s | Cc1ccc(NC(=O)N2CCC(c3nc(C(=O)N4CCCC4)c(C)o3)CC2)cc1F
646 s | COc1ccccc1-c1noc2ncnc(N3CCN(c4ccccn4)CC3)c12
815 s | COc1ccc(S(=O)(=O)N2CCC(n3cnnc3-c3ccccc3)CC2)cc1Cl
1200 s | CCOc1cccc(C2c3[nH]c4ccccc4c3CCN2C(=O)C2CCC2)c1 (centres undefined)
892 s | Cn1c(C(=O)N2CCCC(C(=O)N3CCN(c4ccccc4)CC3)C2)cc2sccc21 (centres undefined)
969 s | CCn1c(C(=O)NCCc2c[nH]c3ccccc23)cc2cc(S(=O)(=O)N(C)C)ccc21
855 s | COc1ccc(-c2nc(CNC(=O)c3ccc(-n4cccn4)nn3)cs2)cc1
856 s | COc1cc(NS(=O)(=O)c2ccc(-c3c(C)noc3C)cc2)cc(OC)c1OC
1160 s | COc1cc(OC)cc(-c2noc(Cn3c(=O)n(CC(C)C)c(=O)c4ccccc43)n2)c1
871 s | COC(=O)c1sc2ccccc2c1NC(=O)c1ccc([N+](=O)[O-])o1
619 s | Cc1ccc(=O)n(CCNC(=O)c2ccc3nsnc3c2)n1
697 s | O=C(Cn1cnc2cc3c(cc21)OCCO3)Nc1cccc(C(F)(F)F)c1
543 s | O=C(O)c1ccc(S(=O)(=O)NCc2ccccn2)cc1
707 s | Cn1c(=O)c(C(=O)NC2CCCC2)nc2cccnc21
573 s | O=C(NCc1ccncc1)C1CC(=O)N(c2ccc3c(c2)CCN3C(=O)C2CC2)C1 (centres undefined)
